≈ marks a conversion by molar mass, not a printed value.
Tests used:
[1] = molecular target: T1, glucocerebrosidase (Gcase) (Homo sapiens, UniProt P04062); assay: Glucocerebrosidase (Gcase) activation assay, 4-methylumbelliferyl-beta-D-glucopyranoside substrate, with saposin C; assay type: biochemical; details: for activation at 0.1 µM: read-out: Percent Gcase Activation 0.1 μM Test Compound; for activation at 1 µM: read-out: Percent Gcase Activation 1 μM Test Compound
T1 construct: micellar solution containing 10 nM GCase and 100 nM saposin C (Enzo ALX-201-262-C050)
T1 sequence (P04062 40-536): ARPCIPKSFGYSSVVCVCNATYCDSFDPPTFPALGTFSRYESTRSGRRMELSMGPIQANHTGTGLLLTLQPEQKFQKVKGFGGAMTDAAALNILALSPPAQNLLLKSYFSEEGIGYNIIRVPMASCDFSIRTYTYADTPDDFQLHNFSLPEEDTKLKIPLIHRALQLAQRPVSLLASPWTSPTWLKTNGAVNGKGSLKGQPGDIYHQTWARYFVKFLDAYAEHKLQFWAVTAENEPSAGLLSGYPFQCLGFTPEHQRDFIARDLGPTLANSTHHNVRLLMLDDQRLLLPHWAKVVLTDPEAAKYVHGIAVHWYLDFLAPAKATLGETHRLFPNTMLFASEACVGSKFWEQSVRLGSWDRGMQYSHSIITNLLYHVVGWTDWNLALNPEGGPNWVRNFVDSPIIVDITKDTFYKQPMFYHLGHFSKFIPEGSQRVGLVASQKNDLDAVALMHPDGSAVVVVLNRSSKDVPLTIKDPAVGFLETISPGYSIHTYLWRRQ
Description: A 484 μL aliquot of a 1.0 mg/mL solution of phosphatidylserine (PS) (Sigma P7769) in chloroform was evaporated under a stream of nitrogen for 1 hour. The lipid film was dissolved over 4 minutes of vigorous vortexing in 40 mL of 176 mM K2HPO4/50 mM citric acid (pH 4.7) containing 7.5 μL of triton X-100, resulting in a mixed micellar preparation with a composition of 0.32 mM triton and 0.37 mol % PS. 4-Methylumbelliferyl-beta-D-glucopyranoside (ACROS-337025000) was dissolved in the micellar solution to a final concentration of 2 mM for use as the reaction substrate.
Test compounds were diluted to the desired concentrations with dimethylsulfoxide (DMSO) from 10 mM stocks, and 0.41 μL of the DMSO compound mixture was added to 100 μL of micellar solution containing 10 nM GCase and 100 nM saposin C (Enzo ALX-201-262-C050). Pre-incubation was allowed to occur for 30 minutes at room temperature, after which the reaction was initiated by combining 25 μL of substrate solution with 25 μL of compound/GCase/saposin mixture. The reaction proceeded for 15 minutes at room temperature and was stopped by adding 150 μL of 1M glycine, pH 12.5. The endpoint of the reaction was monitored by measuring fluorescence intensity (excitation: 365 nm; emission: 440 nm) on a SpectraMax i3 instrument (Molecular Devices). Test compounds were screened at 1.0 and 0.1 μM final concentration, and subsequent 8-point dose response curves were obtained using 3-fold dilutions from a maximum final concentration of 5 μM.

[2] = Compound solubility in water; assay type: physicochemical

Row | Compound | activation at 0.1 µM [1] [%] | activation at 1 µM [1] [%] | solubility [2] [µg/mL]
1 | O=C(Nc1ccc2c(c1)CCC2)c1cnc2n(c1=O)CCS2 | < 5 | 5 to 20 | 0.3 (≈ 0.957 µM)
2 | CCN1CCN(c2ccc(NC(=O)c3cnc4n(c3=O)CCS4)cc2)CC1 | < 5 | 5 to 20 | 34.8 (≈ 90.3 µM)
3 | C#Cc1ccc(NC(=O)c2cnc3n(c2=O)CCS3)cc1 | < 5 | 5 to 20 | 1.5 (≈ 5.04 µM)
4 | CC(C)c1ccc(NC(=O)c2cnc3sccn3c2=O)cn1 | < 5 | < 5 | 13.8 (≈ 43.9 µM)
5 | CCC(C)c1ccc(NC(=O)c2cnc3ccc(C)cn3c2=O)cc1 (stereo not drawn) | < 5 | 5 to 20 | 0.05 (≈ 0.149 µM)
6 | CC(Cc1ccc(Cl)cc1)NC(=O)c1cnc2n(c1=O)CCS2 (stereo not drawn) | < 5 | 5 to 20 | 16.7 (≈ 47.7 µM)
7 | CCC(C)c1ccc(NC(=O)c2cnc3ccccn3c2=O)cc1 (stereo not drawn) | < 5 | 5 to 20 | 0.3 (≈ 0.933 µM)
8 | CCCCC1CCC(NC(=O)c2cnc3cccc(C)n3c2=O)CC1 (stereo not drawn) | 5 to 20 | > 20 | 0.4 (≈ 1.17 µM)
9 | C[C@@H](NC(=O)c1cnc2n(c1=O)CCS2)c1ccccc1 | < 5 | < 5 | 36.8 (≈ 122 µM)
10 | CC1CCC(NC(=O)c2cnc3n(c2=O)CCS3)CC1 (stereo not drawn) | < 5 | 5 to 20 | 21.4 (≈ 72.9 µM)
11 | Cc1cccc2ncc(C(=O)Nc3ccc4c(c3)CN(C)C4)c(=O)n12 | < 5 | < 5 | 35.4 (≈ 106 µM)
12 | Cc1cccc2ncc(C(=O)NC3CCOCC3)c(=O)n12 | < 5 | 5 to 20 | 31 (≈ 108 µM)
13 | O=C(NC1CCC2(CCCCO2)CC1)c1cnc2n(c1=O)CCS2 (stereo not drawn) | < 5 | < 5 | 29.5 (≈ 84.4 µM)
14 | CCC1CCC(NC(=O)c2cnc3sccn3c2=O)CC1 (stereo not drawn) | 5 to 20 | > 20 | 4.9 (≈ 16 µM)
15 | CCc1ccc(NC(=O)c2cnc3n(c2=O)CCS3)cc1 | < 5 | > 20 | 5.1 (≈ 16.9 µM)
16 | O=C(NC1CCCC2(CCCCO2)C1)c1cnc2n(c1=O)CCS2 (stereo not drawn) | < 5 | < 5 | 36 (≈ 103 µM)
17 | O=C(NC1Cc2ccccc2C1)c1cnc2sccn2c1=O | 5 to 20 | > 20 | 1.2 (≈ 3.85 µM)
18 | O=C(Nc1ccc2c(c1)OCCO2)c1cnc2n(c1=O)CCS2 | < 5 | < 5 | 9.5 (≈ 28.7 µM)
19 | O=C(NCC1COc2ccccc2O1)c1cnc2sccn2c1=O (stereo not drawn) | < 5 | < 5 | 22.6 (≈ 65.8 µM)

Row | Compound | activation at 0.1 µM [1] [%] | activation at 1 µM [1] [%] | solubility [2] [µg/mL]
20 | CCC(C)c1ccc(NC(=O)c2cnc3n(c2=O)CCS3)cc1 (stereo not drawn) | 5 to 20 | > 20 | 0.3 (≈ 0.911 µM)
21 | C#Cc1ccc(NC(=O)c2cnc3sccn3c2=O)cc1 | 5 to 20 | > 20 | 3.4 (≈ 11.5 µM)
22 | Cc1cccc2ncc(C(=O)NC3CCCCCC3)c(=O)n12 | < 5 | > 20 | 9.3 (≈ 31.1 µM)
23 | CN1Cc2ccc(NC(=O)c3cnc4n(c3=O)CCS4)cc2C1 | < 5 | 5 to 20 | 32.4 (≈ 98.7 µM)
24 | Cc1cccc2ncc(C(=O)NC3CCCc4ccccc43)c(=O)n12 (stereo not drawn) | 5 to 20 | > 20 | 13.9 (≈ 41.7 µM)
25 | CCCCCO[C@H]1CC[C@H](NC(=O)c2cnc3n(c2=O)CCS3)CC1 | < 5 | 5 to 20 | 8.4 (≈ 23 µM)
26 | CCc1ccc(CCNC(=O)c2cnc3sccn3c2=O)cc1 | < 5 | 5 to 20 | 2.5 (≈ 7.64 µM)
27 | Cc1cccc2ncc(C(=O)NC3CCc4ccccc4C3)c(=O)n12 (stereo not drawn) | < 5 | 5 to 20 | 4.3 (≈ 12.9 µM)
28 | C#Cc1ccc(NC(=O)c2cnc3cccc(C)n3c2=O)cc1 | < 5 | 5 to 20 | 1.5 (≈ 4.95 µM)
29 | CC(C)c1ccc(NC(=O)c2cnc3sccn3c2=O)nc1 | < 5 | 5 to 20 | 2.7 (≈ 8.59 µM)
30 | Cc1cccc2ncc(C(=O)Nc3ccc(N4CCCCC4)cc3)c(=O)n12 | < 5 | < 5 | 1.4 (≈ 3.86 µM)
31 | CCCCC1CCC(NC(=O)c2cnc3n(c2=O)C(C)CS3)CC1 (stereo not drawn) | 5 to 20 | > 20 | 1.3 (≈ 3.72 µM)
32 | O=C(NC1CCc2ccccc2C1)c1cnc2n(c1=O)CCS2 (stereo not drawn) | < 5 | 5 to 20 | 30.7 (≈ 93.8 µM)
33 | CCC(C)c1ccc(NC(=O)c2cnc3cccc(C)n3c2=O)cc1 (stereo not drawn) | 5 to 20 | > 20 | 1 (≈ 2.98 µM)
34 | O=C(NC1CCCCCC1)c1cnc2n(c1=O)CCS2 | < 5 | 5 to 20 | 20.8 (≈ 70.9 µM)
35 | Cc1cccc2ncc(C(=O)NC3CCc4ccccc43)c(=O)n12 (stereo not drawn) | < 5 | > 20 | 6.8 (≈ 21.3 µM)
36 | C[C@H](NC(=O)c1cnc2n(c1=O)CCS2)c1ccccc1 | 5 to 20 | 5 to 20 | 37.2 (≈ 123 µM)
37 | O=C(NC1CCC(c2ccccc2)CC1)c1cnc2n(c1=O)CCS2 (stereo not drawn) | 5 to 20 | > 20 | 10.6 (≈ 29.8 µM)
38 | Cc1cccc2ncc(C(=O)Nc3ccc4c(c3)OCCO4)c(=O)n12 | < 5 | 5 to 20 | 0.7 (≈ 2.08 µM)
